Data from ChEMBL document CHEMBL6182898, “Design, synthesis and bioevaluation of novel hydrazide derivatives as enhancers of immunotherapy and DNA-damage response in antitumor therapy” (Eur J Med Chem, 2025).
Active and inactive are the calls of the source. No cut-off for these calls is given here.

What was measured:
SK-OV-3 [1] = test: cells; format: functional; conditions: Homo sapiens, time 72 hrs
4T1 [2] = test: cells; format: functional; conditions: Mus musculus, time 72 hrs
HCT-116 [3] = test: cells; format: functional; conditions: Homo sapiens, time 72 hrs
B16-F10 [4] = test: cells; format: functional; conditions: Mus musculus, time 72 hrs
K562 [5] = test: cells; format: functional; conditions: Homo sapiens, time 72 hrs
4T1 [6] = test: Antiproliferative activity against mouse 4T1 cells incubated for 72 hrs by MTT assay; format: functional, cell-based; conditions: 4T1, 72 h
SK-OV-3 [7] = test: Antiproliferative activity against human SK-OV-3 cells incubated for 72 hrs by MTT assay; format: functional, cell-based; conditions: SK-OV-3, 72 h
HCT-116 [8] = test: Antiproliferative activity against human HCT-116 cells incubated for 72 hrs by MTT assay; format: functional, cell-based; conditions: HCT-116, 72 h
B16-F10 [9] = test: Antiproliferative activity against mouse B16-F10 cells incubated for 72 hrs by MTT assay; format: functional, cell-based; conditions: B16-F10, 72 h
K562 [10] = test: Antiproliferative activity against human K562 cells incubated for 72 hrs by CCK8 assay; format: functional, cell-based; conditions: K562, 72 h
[11] = Antiproliferative activity against human HK-2 cells incubated for 72 hrs by MTT assay
Histone deacetylase 1 = Histone deacetylase 1 (Homo sapiens, UniProt Q13547); test: Inhibition of HDAC1 (unknown origin)
Histone deacetylase 1, sequence (Q13547 whole entry): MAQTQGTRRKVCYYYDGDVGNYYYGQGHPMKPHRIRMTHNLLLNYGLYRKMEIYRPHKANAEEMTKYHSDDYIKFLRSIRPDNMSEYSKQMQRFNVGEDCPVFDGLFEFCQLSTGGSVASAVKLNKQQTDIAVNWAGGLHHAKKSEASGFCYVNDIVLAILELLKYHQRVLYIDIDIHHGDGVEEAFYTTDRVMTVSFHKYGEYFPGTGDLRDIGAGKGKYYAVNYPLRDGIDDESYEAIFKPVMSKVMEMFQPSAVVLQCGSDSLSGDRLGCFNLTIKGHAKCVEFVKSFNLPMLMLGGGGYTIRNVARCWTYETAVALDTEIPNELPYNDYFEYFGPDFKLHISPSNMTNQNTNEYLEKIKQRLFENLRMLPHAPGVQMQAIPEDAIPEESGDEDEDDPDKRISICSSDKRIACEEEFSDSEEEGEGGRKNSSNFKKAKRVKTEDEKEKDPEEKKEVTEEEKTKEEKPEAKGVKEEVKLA

Histone deacetylase 3 = Histone deacetylase 3 (Homo sapiens, UniProt O15379); test: Inhibition of HDAC3 (unknown origin)
Histone deacetylase 3, sequence (O15379 whole entry): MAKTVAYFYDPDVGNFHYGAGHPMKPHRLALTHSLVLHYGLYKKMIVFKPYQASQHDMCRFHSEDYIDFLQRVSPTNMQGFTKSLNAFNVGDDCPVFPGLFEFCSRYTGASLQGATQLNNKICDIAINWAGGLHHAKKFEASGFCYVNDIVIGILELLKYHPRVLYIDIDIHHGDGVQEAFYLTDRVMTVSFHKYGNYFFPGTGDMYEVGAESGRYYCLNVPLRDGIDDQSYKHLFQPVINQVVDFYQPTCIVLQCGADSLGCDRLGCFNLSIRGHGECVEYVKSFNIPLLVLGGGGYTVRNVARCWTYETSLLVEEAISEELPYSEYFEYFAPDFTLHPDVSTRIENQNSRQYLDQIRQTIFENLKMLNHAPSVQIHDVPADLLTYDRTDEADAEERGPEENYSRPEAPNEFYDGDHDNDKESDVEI

[12] = target: T1, Protein deacetylase HDAC6 (Homo sapiens, UniProt Q9UBN7); test: Inhibition of HDAC6 (unknown origin)
T1 sequence (Q9UBN7 whole entry): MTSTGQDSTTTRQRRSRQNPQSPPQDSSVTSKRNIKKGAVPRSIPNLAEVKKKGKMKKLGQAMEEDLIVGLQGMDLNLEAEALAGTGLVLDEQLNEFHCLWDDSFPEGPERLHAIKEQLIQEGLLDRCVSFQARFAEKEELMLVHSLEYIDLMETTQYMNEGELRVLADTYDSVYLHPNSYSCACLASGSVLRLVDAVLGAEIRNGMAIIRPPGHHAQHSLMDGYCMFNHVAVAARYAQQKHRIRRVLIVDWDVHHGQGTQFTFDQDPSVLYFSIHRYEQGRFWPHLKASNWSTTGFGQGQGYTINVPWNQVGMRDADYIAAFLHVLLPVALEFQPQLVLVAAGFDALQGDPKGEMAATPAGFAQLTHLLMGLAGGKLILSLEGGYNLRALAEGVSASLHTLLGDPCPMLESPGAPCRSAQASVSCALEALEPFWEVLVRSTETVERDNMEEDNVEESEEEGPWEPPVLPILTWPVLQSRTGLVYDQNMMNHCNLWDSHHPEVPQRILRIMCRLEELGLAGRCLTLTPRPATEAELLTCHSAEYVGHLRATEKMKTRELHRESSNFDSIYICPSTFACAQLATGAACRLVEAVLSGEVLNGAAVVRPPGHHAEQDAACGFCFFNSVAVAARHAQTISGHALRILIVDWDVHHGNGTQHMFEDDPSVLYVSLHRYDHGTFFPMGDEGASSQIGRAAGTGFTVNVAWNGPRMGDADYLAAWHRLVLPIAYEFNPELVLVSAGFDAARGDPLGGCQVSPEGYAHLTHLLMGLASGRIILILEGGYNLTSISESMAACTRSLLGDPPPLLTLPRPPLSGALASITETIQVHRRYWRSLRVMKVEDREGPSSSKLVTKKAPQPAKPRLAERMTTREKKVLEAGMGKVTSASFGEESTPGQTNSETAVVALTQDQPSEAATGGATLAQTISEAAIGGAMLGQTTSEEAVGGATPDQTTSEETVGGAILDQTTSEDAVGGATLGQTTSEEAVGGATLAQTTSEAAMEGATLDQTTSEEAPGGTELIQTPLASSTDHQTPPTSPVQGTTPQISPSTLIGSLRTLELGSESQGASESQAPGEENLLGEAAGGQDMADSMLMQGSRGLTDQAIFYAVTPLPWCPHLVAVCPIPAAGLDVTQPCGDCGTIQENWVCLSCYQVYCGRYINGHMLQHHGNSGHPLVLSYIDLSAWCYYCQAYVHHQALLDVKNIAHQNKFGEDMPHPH

Histone deacetylase 8 = target: T2, Histone deacetylase 8 (Homo sapiens, UniProt Q9BY41); test: Inhibition of HDAC8 (unknown origin)
T2 sequence (Q9BY41 whole entry): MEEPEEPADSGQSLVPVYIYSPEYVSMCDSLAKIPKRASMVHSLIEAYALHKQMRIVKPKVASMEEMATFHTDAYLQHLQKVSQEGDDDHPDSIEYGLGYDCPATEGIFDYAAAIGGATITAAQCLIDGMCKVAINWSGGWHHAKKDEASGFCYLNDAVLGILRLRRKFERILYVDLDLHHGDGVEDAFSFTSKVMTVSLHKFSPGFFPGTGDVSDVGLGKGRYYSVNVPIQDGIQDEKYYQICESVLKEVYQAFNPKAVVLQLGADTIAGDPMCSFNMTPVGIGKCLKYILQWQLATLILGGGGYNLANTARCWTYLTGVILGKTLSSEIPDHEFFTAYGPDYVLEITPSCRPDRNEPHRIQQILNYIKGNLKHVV

B16-F10 [13] = test: Antitumor activity against mouse B16-F10 cells implanted in male C57BL/6J mouse at 20 mg/kg, IG treated for 14 days consecutively relative to control; format: functional; conditions: B16-F10, po, 336 h, time 14 day, read-out: TGI
B16-F10 [14] = test: Induction of antitumor immunity in mouse B16-F10 cells implanted in male C57BL/6J mouse assessed as CD3+CD4+ T cell infiltration at 20 mg/kg, IG treated for 14 days consecutively by flow cytometry (reference value: 7.4 %); format: functional; conditions: time 14 day
B16-F10 [15] = test: Induction of antitumor immunity in mouse B16-F10 cells implanted in male C57BL/6J mouse assessed as CD3+CD8+ T cell infiltration at 20 mg/kg, IG treated for 14 days consecutively by flow cytometry (reference value: 10 %); format: functional; conditions: time 14 day
4T1 [16] = test: Induction of DNA damage in mouse 4T1 cells assessed as decrease in PARP1 level at 2 uM incubated for 24 hrs by Western blot analysis; format: functional, cell-based
4T1 [17] = test: Synergistic induction of DNA damage in mouse 4T1 cells assessed as decrease in PARP1 level at 1 uM incubated for 24 hrs in presence of Olaparib by Western blot analysis; format: functional, cell-based
4T1 [18] = test: Induction of DNA damage in mouse 4T1 cells assessed as increase in gamma-H2AX level at 2 uM incubated for 24 hrs by Western blot analysis; format: functional, cell-based
4T1 [19] = test: Synergistic induction of DNA damage in mouse 4T1 cells assessed as increase in gamma-H2AX level at 1 uM incubated for 24 hrs in presence of Olaparib by Western blot analysis; format: functional, cell-based
4T1 [20] = test: Induction of DNA damage in mouse 4T1 cells assessed as decrease in PARP1 level at 5 uM by immunofluorescence based analysis; format: functional, cell-based
4T1 [21] = test: Induction of DNA damage in mouse 4T1 cells assessed as increase in gamma-H2AX level at 5 uM by immunofluorescence based analysis; format: functional, cell-based
B16-F10 [22] = test: Induction of antitumor immunity in mouse B16-F10 cells implanted in male C57BL/6J mouse assessed as CD3+CD4+ T cell infiltration at 50 mg/kg, IG treated for 14 days consecutively by flow cytometry (reference value: 7.4 %); format: functional; conditions: time 14 day
B16-F10 [23] = test: Induction of antitumor immunity in mouse B16-F10 cells implanted in male C57BL/6J mouse assessed as CD3+CD8+ T cell infiltration at 50 mg/kg, IG treated for 14 days consecutively by flow cytometry (reference value: 10 %); format: functional; conditions: time 14 day
[24] = target: T3, Histone deacetylase 3 (Mus musculus) (UniProt O88895); test: In vivo inhibition of HDAC3 in mouse B16-F10 cells implanted in male C57BL/6J mouse assessed as increase in Ac-H3 level at 50 mg/kg, IG treated for 14 days consecutively by Western blot analysis; format: functional, organism-based; conditions: time 14.0 day
T3 sequence (whole entry): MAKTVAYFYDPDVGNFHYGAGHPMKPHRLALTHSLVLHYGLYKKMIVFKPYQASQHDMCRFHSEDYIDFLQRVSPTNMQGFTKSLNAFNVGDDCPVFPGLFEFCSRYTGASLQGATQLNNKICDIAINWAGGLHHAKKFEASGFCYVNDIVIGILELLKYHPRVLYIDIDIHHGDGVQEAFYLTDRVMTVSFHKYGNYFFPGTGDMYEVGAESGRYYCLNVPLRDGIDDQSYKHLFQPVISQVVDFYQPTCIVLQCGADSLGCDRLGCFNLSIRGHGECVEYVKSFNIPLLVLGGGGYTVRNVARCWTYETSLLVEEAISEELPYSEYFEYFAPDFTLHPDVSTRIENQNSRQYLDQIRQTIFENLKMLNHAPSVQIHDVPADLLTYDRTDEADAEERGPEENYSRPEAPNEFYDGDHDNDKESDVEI

[25] = target: T3, Histone deacetylase 3 (Mus musculus); test: In vivo inhibition of HDAC3 in mouse B16-F10 cells implanted in male C57BL/6J mouse assessed as decrease in PD-L1 level at 50 mg/kg, IG treated for 14 days consecutively by Western blot analysis; format: functional, organism-based; conditions: time 14.0 day
Mus musculus = test: Effect on Ac-alpha-tubulin in mouse B16-F10 cells implanted in male C57BL/6J mouse at 50 mg/kg, IG treated for 14 days consecutively by Western blot analysis; format: functional, organism-based; conditions: time 14.0 day
[26] = target: T3, Histone deacetylase 3 (Mus musculus); test: In vivo inhibition of HDAC3 in mouse B16-F10 cells implanted in male C57BL/6J mouse assessed as increase in Ac-H3 level at 50 mg/kg, IG treated for 14 days consecutively by immunofluorescence based analysis; format: functional, organism-based; conditions: time 14.0 day

IC50 (4T1 [6]) [µM]	IC50 (SK-OV-3 [7]) [µM]	IC50 (HCT-116 [8]) [µM]	IC50 (B16-F10 [9]) [µM]	IC50 (K562 [10]) [µM]	IC50 (Histone deacetylase 1) [µM]	IC50 (Histone deacetylase 3) [µM]	IC50 [12] [µM]	IC50 (Histone deacetylase 8) [µM]	SMILES	inhibition at 10 µM (SK-OV-3 [1]) [%]	inhibition at 10 µM (4T1 [2]) [%]	inhibition at 10 µM (HCT-116 [3]) [%]	inhibition at 10 µM (B16-F10 [4]) [%]	inhibition at 10 µM (K562 [5]) [%]	IC50 at 72 h [11] [µM]	also measured
8.02	5.22	8.42	13.1	6.05	1.36	0.97	> 10	> 10	CCCNNC(=O)c1ccc(NC(=O)c2cnc(-c3cc4ccc5cccc6ccc(c3)c4c56)s2)cc1	77.5	< 20	69.3	61.7	< 50	11.2	
									Cc1c(COc2cc(OCc3cccc(C#N)c3)c(CNC(C)(C)C(=O)O)cc2Cl)cccc1-c1ccccc1							inhibition in vivo at 20 mg/kg (B16-F10 [13]): 33%; Activity (B16-F10 [14]): 23%; Activity (B16-F10 [15]): 31%
									O=C(CCCCCCC(=O)Nc1ccccc1)NO [VORINOSTAT]							Activity (4T1 [16]): Active; Activity (4T1 [17]): Active; Activity (4T1 [18]): Active; Activity (4T1 [19]): Active; Activity (4T1 [20]): Active; Activity (4T1 [21]): Active; Activity (B16-F10 [22]): 18%; Activity (B16-F10 [23]): 17%; inhibition [24]: Active; inhibition [25]: Active; Activity (Mus musculus): No effect; inhibition [26]: Active
14.4	4.48	4.14	11.1	2.71	3.26	0.55	> 10	> 10	CCCNNC(=O)CCCCCCNC(=O)c1cnc(-c2ccc3ccccc3c2)s1	81.5	< 20	94.7	57.6	< 50	10.8	
